In BigSolDB 2.1:

Cc1cnc(NC(=O)C2=C(O)c3ccccc3S(=O)(=O)N2C)s1
Conditions	solubility (mole fraction)
in PEG-400, 298.15 K	0.00932
in PEG-400, 303.15 K	0.0096
in PEG-400, 308.15 K	0.0101
in PEG-400, 313.15 K	0.0104
in PEG-400, 318.15 K	0.0106

in water
Conditions	solubility (mole fraction)
298.15 K	4.24e-07
303.15 K	6.28e-07
308.15 K	9.48e-07
313.15 K	1.34e-06
318.15 K	1.93e-06
